Results from US20240168030A1, “DIRECT FLUORESCENT GLYCAN LABELING” (BIO-TECHNE CORPORATION, priority 2019, published 2024).

Assays:
FUT8 = molecular target: T1, FUT8 (Homo sapiens, UniProt Q9BYC5); experiment: Fluorescent labeling with fluorophore-conjugated fucose by FUT8; format: biochemical; parameters: key to Tolerance of the fluorophore by FUT8: +++: indicated by number of + signs; ++: indicated by number of + signs; indicated by number of + signs; conditions: for Incorporation of conjugated fucose into antibodies by FUT8: Cantuzumab (FUT8 knockout cells) and NIST mAb 8671, FIG. 10A; for Tolerance of the fluorophore by FUT8: fluorophore-conjugated fucose donor, acceptor core GlcNAc of N-glycans, labeled Cantuzumab in FIG. 10
T1 construct: purchased Bio-Techne (Minneapolis, MN)
T1 sequence (Q9BYC5 1-575): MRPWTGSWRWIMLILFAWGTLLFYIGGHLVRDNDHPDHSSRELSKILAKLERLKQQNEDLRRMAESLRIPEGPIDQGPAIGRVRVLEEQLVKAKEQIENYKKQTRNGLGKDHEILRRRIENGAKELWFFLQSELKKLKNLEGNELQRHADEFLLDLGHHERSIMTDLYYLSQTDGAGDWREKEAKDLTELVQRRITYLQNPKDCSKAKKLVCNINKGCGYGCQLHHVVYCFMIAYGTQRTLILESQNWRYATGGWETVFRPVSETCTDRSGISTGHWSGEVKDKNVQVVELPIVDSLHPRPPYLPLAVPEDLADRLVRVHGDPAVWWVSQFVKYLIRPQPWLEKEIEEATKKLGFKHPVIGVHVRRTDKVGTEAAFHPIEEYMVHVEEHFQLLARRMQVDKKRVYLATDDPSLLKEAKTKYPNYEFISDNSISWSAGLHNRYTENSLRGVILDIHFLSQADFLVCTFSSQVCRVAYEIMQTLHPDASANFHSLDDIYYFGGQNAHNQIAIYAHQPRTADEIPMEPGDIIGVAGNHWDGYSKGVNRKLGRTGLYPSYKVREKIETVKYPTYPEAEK
Source text: FIG. 10A-FIG. 10D show exemplary results of probing core-6 fucosylation on antibodies by FUT8 incorporation of fluorophores. FIG. 10A. Results of probing substrate glycans of FUT8 (F8) and FUT9 (F9) on Cantuzumab, an anti-Muc1 therapeutic antibody, and NIST reference mAb 8671 using guanosine 5′-diphosphate activated Alexa-Fluor®555 conjugated fucose (GDP-AF555-Fuc) (555), GDP-Cy5-fucose (Cy5), and guanosine 5′-diphosphate activated Alexa-Fluor®488 conjugated fucose (GDP-AF488-Fuc) (488) as donor substrates. Cantuzumab was expressed in FUT8 knockout cells and is devoid of core-6 fucose. Molecular marker (MM) is a prestained Western molecular marker (Bio-Rad Laboratories, Hercules, CA). […] The product of each reaction was separated using SDS-PAGE and imaged with trichloroethanol (TCE) staining (upper panel) and fluorescent imager (lower panel). Labeling on the light chains of the antibodies by Alexa-Fluor®555 is likely the result of non-specific staining due to the use of unpurified GDP-AF555-Fuc that contained free Alexa-Fluor®555. FIG. 10B. […] FIG. 10C. […] FIG. 10D. Schematics of the glycan structures analyzed in FIG. 10B and FIG. 10C.
(§1) For a typical labeling reaction, 1 μg to 5 μg target protein was mixed with 0.2 nmol GDP-f-Fuc and 0.2 μg of a fucosyltransferase in 30 μL buffer of 25 mM Tris pH 7.5, 10 mM MnCl2. The mixture was incubated at 37° C. for 30 minutes. The reaction was then separated by sodium dodecyl sulfate—polyacrylamide gel electrophoresis (SDS-PAGE) and the gel was directly imaged using a fluorescent imager FluorChem M ProteinSimple, Bio-Techne, Minneapolis, MN), followed by imaging with traditional protein imaging methods such as silver staining or trichloroethanol (TCE) staining.
Although FUT8 was known to tolerate azido-fucose (Wu et al. Biochem Biophys Res Commun 473, 524-529 (2016)), it was unknown whether FUT8 could tolerate a fluorophore-conjugated fucose. To test whether FUT8 could tolerate the fluorophore-conjugated fucose and detect its substrate glycans, two substrates were used: Cantuzumab was prepared from a FUT8 knockout cell line, and a reference monoclonal antibody from the National Institute of Standards and Technology (NIST mAb, material 8671, Gaithersburg, MD). The NIST mAb is a humanized IgG1κ monoclonal antibody (Kashi et al. MAbs 10, 922-933 (2018)). IgG antibodies are known to contain an N-glycan site on their heavy chains (Reusch et al. Glycobiology 25, 1325-1334 (2015)).

FUT2 = molecular target: T2, FUT2 (Homo sapiens, UniProt Q10981); experiment: Fluorescent labeling with fluorophore-conjugated fucose by FUT2; format: biochemical; parameters: key to Tolerance of the fluorophore by FUT2: +++: indicated by number of + signs; ++: indicated by number of + signs; indicated by number of + signs; conditions: for Tolerance of the fluorophore by FUT2: fluorophore-conjugated fucose donor, acceptor terminal Gal of lactosamine, fluorescent intensity of labeled fetuin or asialofetuin in FIG. 9
T2 construct: purchased Bio-Techne (Minneapolis, MN)
T2 sequence (Q10981 1-343): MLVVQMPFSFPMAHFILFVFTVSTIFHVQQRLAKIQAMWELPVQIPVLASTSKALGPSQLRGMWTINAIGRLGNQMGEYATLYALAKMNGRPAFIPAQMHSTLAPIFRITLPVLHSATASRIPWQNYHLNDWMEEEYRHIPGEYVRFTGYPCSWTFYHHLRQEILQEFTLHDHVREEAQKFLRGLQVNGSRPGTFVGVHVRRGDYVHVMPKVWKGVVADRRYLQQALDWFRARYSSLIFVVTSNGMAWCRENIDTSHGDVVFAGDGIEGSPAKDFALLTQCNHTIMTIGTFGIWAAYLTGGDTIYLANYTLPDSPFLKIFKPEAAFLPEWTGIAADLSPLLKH
Description: FIG. 9A-FIG. 9B show exemplary results of probing substrate glycans of various fucosyltransferases on fetuin and asialofetuin. FIG. 9A. Probing substrate glycans of fucosyltransferases with guanosine 5′-diphosphate activated Cy5 conjugated fucose (GDP-Cy5-Fuc). […] FUT9 labeled itself (indicated by an arrow in the gel). FIG. 9B. Tolerance of Alexa-Fluor®555 (555), Alexa-Fluor®488 (488), and Cy5 by the indicated fucosyltransferases. All reactions were incubated at 37° C. for 30 minutes and then separated on SDS-PAGE and imaged with silver staining (upper panels) and fluorescent imager (lower panels). M, molecular marker.
as §1
The four enzymes tolerated the three fluorophores to different levels.

Substance: guanosine 5′-diphosphate activated Alexa-Fluor®488 conjugated fucose [GDP-AF488-Fuc]
- Incorporation of conjugated fucose into antibodies by FUT8 (FUT8): introduced into Cantuzumab but not to NIST mAb
- Tolerance of the fluorophore by FUT8 (FUT8): ++
- Tolerance of the fluorophore by FUT2 (FUT2): +

Substance: guanosine 5′-diphosphate activated Alexa-Fluor®555 conjugated fucose [GDP-AF555-Fuc]
- Incorporation of conjugated fucose into antibodies by FUT8 (FUT8): introduced into Cantuzumab but not to NIST mAb
- Tolerance of the fluorophore by FUT8 (FUT8): ++
- Fluorophore preference of FUT2 (FUT2; among Cy5-, AlexaFluor® 488-, and AlexaFluor® 555-conjugated fucoses, FIG. 9B): preferred
- Tolerance of the fluorophore by FUT2 (FUT2): +++
